The IC50 is the concentration that gives 50% inhibition.

The target of this experiment is T1, human JAK2 (Homo sapiens, UniProt O60674).
T1 construct: JAK2 (a.a. 828-1132); His tag (N); made in house; host or cells: insect cells (baculovirus)
Description: In vitro JAK kinase assay (HTRF, phosphorylation of biotinylated peptide). In kind it is biochemical. Conditions: catalytic domain a.a. 828-1132, 30 μM ATP, 500 nM peptide, room temperature 1 hr; read-out: JAK-2 IC50. The procedure, abridged:
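His-tagged human JAK2 catalytic domain (a.a. 828-1132), baculovirus/insect-cell expressed; phosphorylation of 500 nM biotinylated peptide at 30 μM ATP in 50 mM Tris pH 7.8, 100 mM NaCl, 5 mM DTT, 0.01% BSA. 1 h at room temperature, EDTA stop, HTRF read (Eu-Py20/SA-APC); IC50.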
Background: Time-resolved FRET reads energy transfer from a long-lived donor to a nearby acceptor.

T1 sequence (O60674 828-1132): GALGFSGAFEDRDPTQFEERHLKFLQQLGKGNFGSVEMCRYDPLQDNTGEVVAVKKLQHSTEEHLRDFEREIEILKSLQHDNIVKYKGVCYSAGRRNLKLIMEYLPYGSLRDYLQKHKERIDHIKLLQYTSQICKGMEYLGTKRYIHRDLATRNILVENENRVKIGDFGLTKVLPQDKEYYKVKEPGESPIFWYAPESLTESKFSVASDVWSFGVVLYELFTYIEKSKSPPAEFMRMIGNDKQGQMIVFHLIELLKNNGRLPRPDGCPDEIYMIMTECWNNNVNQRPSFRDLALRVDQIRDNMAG

As to `CN(C)C(=O)c1ccc(Nc2nccc(-c3cnn(C(CC#N)CC4CCN(S(=O)(=O)c5ccn(C)n5)CC4)c3)n2)cc1` (racemic) [Example 58, 4-(4-(1-(1-cyano-3-(1-(1-methyl-1H-pyrazol-3-ylsulfonyl)piperidin-4-yl)propan-2-yl)-1H-pyrazol-4-yl)pyrimidin-2-ylamino)-N,N-dimethylbenzamide], the IC50 was less than 0.1 µM.
Consider `N#CCC1(n2cc(-c3ccnc(Nc4ccc(C(=O)N5CCC(O)CC5)cc4)n3)cn2)CC(C#N)C1` (single isomer, unassigned) [Example 301, 3-(cyanomethyl)-3-(4-(2-(4-(4-hydroxypiperidine-1-carbonyl)phenylamino)pyrimidin-4-yl)-1H-pyrazol-1-yl)cyclobutanecarbonitrile], for which the IC50 is less than 0.1 µM.
With `CC(=O)N[C@H]1CCN(C(=O)c2ccc(Nc3nccc(-c4cnn(C(CC#N)C5CCCC5)c4)n3)cc2)C1` (stereo partly drawn) [Example 222, N-((3S)-1-(4-(4-(1-(2-cyano-1-cyclopentylethyl)-1H-pyrazol-4-yl)pyrimidin-2-ylamino)benzoyl)pyrrolidin-3-yl)acetamide] the figure was less than 0.1 µM.
On to `N#CCC(C1CCCC1)n1cc(-c2ccnc(Nc3ccc(NS(=O)(=O)c4ccc(-c5ccccn5)s4)cc3)n2)cn1` (racemic) [Example 195, N-(4-(4-(1-(2-cyano-1-cyclopentylethyl)-1H-pyrazol-4-yl)pyrimidin-2-ylamino)phenyl)-5-(pyridin-2-yl)thiophene-2-sulfonamide], for which the IC50 is less than 0.1 µM.
For the compound `COc1ccc(Nc2nccc(-c3cnn(C(CC#N)C4CCCC4)c3)n2)cc1` (racemic) [Example 38, 3-cyclopentyl-3-(4-(2-(4-methoxyphenylamino)pyrimidin-4-yl)-1H-pyrazol-1-yl)propanenitrile], the IC50 is less than 0.1 µM.
The same measure for `N#CCC1(n2cc(-c3ccnc(Nc4cccc(-c5cnco5)c4)n3)cn2)CC(C#N)C1` (single isomer, unassigned) [Example 343, 3-(cyanomethyl)-3-[4-(2-{[3-(1,3-oxazol-5-yl)phenyl]amino}pyrimidin-4-yl)-1H-pyrazol-1-yl]cyclobutanecarbonitrile]: less than 0.1 µM.
Consider `N#CCC(C1CCC1)n1cc(-c2ccnc(Nc3ccc(-n4cccn4)cc3)n2)cn1` (racemic) [Example 173, 3-(4-(2-(4-(1H-pyrazol-1-yl)phenylamino)pyrimidin-4-yl)-1H-pyrazol-1-yl)-3-cyclobutylpropanenitrile], for which the IC50 is less than 0.1 µM.
With `CCS(=O)(=O)N1CC(CC#N)(n2cc(-c3ccnc(Nc4ccc(C(=O)N5[C@@H]6CC[C@H]5C[C@@H](O)C6)cc4)n3)cn2)C1` [Example 257, 2-(1-(ethylsulfonyl)-3-(4-(2-(4-((3-endo)-3-hydroxy-8-azabicyclo[3.2.1]octane-8-carbonyl)phenylamino)pyrimidin-4-yl)-1H-pyrazol-1-yl)azetidin-3-yl)acetonitrile] the figure was less than 0.1 µM; with `N#CCC1(n2cc(-c3ccnc(Nc4ccc(C(=O)NC5CCOCC5)cc4)n3)cn2)CC(C#N)C1` (single isomer, unassigned) [Example 289, 4-(4-(1-(3-cyano-1-(cyanomethyl)cyclobutyl)-1H-pyrazol-4-yl)pyrimidin-2-ylamino)-N-(tetrahydro-2H-pyran-4-yl)benzamide], less than 0.1 µM; with `N#CCC1(n2cc(-c3ccnc(Nc4ccc(N5CCOCC5)cc4)n3)cn2)CN(S(=O)(=O)C2CC2)C1` [Example 93, 2-(1-(cyclopropylsulfonyl)-3-(4-(2-(4-morpholinophenylamino)pyrimidin-4-yl)-1H-pyrazol-1-yl)azetidin-3-yl)acetonitrile], less than 0.1 µM.
With `CC(=O)Nc1ccc(Nc2nccc(-c3cnn(C(CC#N)C4CCCC4)c3)n2)cc1` (racemic) [Example 39, N-(4-(4-(1-(2-cyano-1-cyclopentylethyl)-1H-pyrazol-4-yl)pyrimidin-2-ylamino)phenyl)acetamide] the figure was less than 0.1 µM; with `N#CCC(CC1CCN(C(=O)c2ccc(F)cc2F)CC1)n1cc(-c2ccnc(Nc3ccc(Oc4ccccc4)cc3)n2)cn1` (racemic) [Example 11, 4-(1-(2,4-difluorobenzoyl)piperidin-4-yl)-3-(4-(2-(4-phenoxyphenylamino)pyrimidin-4-yl)-1H-pyrazol-1-yl)butanenitrile], less than 0.1 µM; with `N#CCC(C1CCC1)n1cc(-c2ccnc(Nc3ccc(N4CCOCC4=O)cc3)n2)cn1` (racemic) [Example 175, 3-cyclobutyl-3-(4-(2-(4-(3-oxomorpholino)phenylamino)pyrimidin-4-yl)-1H-pyrazol-1-yl)propanenitrile], less than 0.1 µM.
The same measure for `Cc1cc(OC2CCC(CC#N)(n3cc(-c4ccnc(Nc5ccc(N6CCOCC6=O)cc5)n4)cn3)CC2)no1` (single isomer, unassigned) [Example 244, 2-(4-(5-methylisoxazol-3-yloxy)-1-(4-(2-(4-(3-oxomorpholino)phenylamino)pyrimidin-4-yl)-1H-pyrazol-1-yl)cyclohexyl)acetonitrile]: less than 0.1 µM; for `N#CCC1(n2cc(-c3ccnc(Nc4ccc(N5CCOCC5=O)cc4)n3)cn2)CC(C#N)C1` (single isomer, unassigned) [Example 338, 3-(cyanomethyl)-3-[4-(2-{[4-(3-oxomorpholin-4-yl)phenyl]amino}pyrimidin-4-yl)-1H-pyrazol-1-yl]cyclobutanecarbonitrile]: less than 0.1 µM.
Regarding `N#CCC(C1CCCC1)n1cc(-c2ccnc(Nc3ccc(N4CCOCC4)cc3)n2)cn1` (racemic) [Example 35, 3-cyclopentyl-3-(4-(2-(4-morpholinophenylamino)pyrimidin-4-yl)-1H-pyrazol-1-yl)propanenitrile], the IC50 was less than 0.1 µM.
With `Cc1cnc(Nc2ccc(C(=O)NCCO)cc2)nc1-c1cnn(C(CC#N)C2CCCC2)c1` (racemic) [Example 83, 4-(4-(1-(2-cyano-1-cyclopentylethyl)-1H-pyrazol-4-yl)-5-methylpyrimidin-2-ylamino)-N-(2-hydroxyethyl)benzamide], the IC50 is less than 0.1 µM.
For `N#CCC(C1CCCC1)n1cc(-c2ccnc(Nc3ccc(C(=O)N4CC[C@H](F)C4)cc3)n2)cn1` (mixture of isomers) [Example 229, 3-cyclopentyl-3-(4-(2-(4-((S)-3-fluoropyrrolidine-1-carbonyl)phenylamino)pyrimidin-4-yl)-1H-pyrazol-1-yl)propanenitrile], the IC50 was less than 0.1 µM.
For `CC(=O)N[C@@H]1CCN(C(=O)c2ccc(Nc3nccc(-c4cnn(C5(CC#N)CC(C#N)C5)c4)n3)cc2)C1` (stereo partly drawn) [Example 299, (R)—N-(1-(4-(4-(1-(3-cyano-1-(cyanomethyl)cyclobutyl)-1H-pyrazol-4-yl)pyrimidin-2-ylamino)benzoyl)pyrrolidin-3-yl)acetamide], the IC50 was less than 0.1 µM.
With `N#CCC(C1CCCC1)n1cc(-c2ccnc(Nc3cccc(NC(=O)CN4CCOCC4)c3)n2)cn1` (racemic) [Example 242, N-(3-(4-(1-(2-cyano-1-cyclopentylethyl)-1H-pyrazol-4-yl)pyrimidin-2-ylamino)phenyl)-2-morpholinoacetamide] the figure was less than 0.1 µM.
With `N#CCC(C1CCCC1)n1cc(-c2ccnc(Nc3cccc(C(=O)NCCN4CCNC4=O)c3)n2)cn1` (stereo not shown) [Example 159, 3-(4-(1-(2-cyano-1-cyclopentylethyl)-1H-pyrazol-4-yl)pyrimidin-2-ylamino)-N-(2-(2-oxoimidazolidin-1-yl)ethyl)benzamide] the figure was less than 0.1 µM.
The same measure for `N#CCC(C1CC1)n1cc(-c2ccnc(Nc3ccc(C(=O)N4CCC(C#N)CC4)cc3)n2)cn1` (racemic) [Example 318, 1-[4-({4-[1-(2-cyano-1-cyclopropylethyl)-1H-pyrazol-4-yl]pyrimidin-2-yl}amino)benzoyl]piperidine-4-carbonitrile]: less than 0.1 µM; for `N#CCC(C1CCCC1)n1cc(-c2ccnc(Nc3ccc(NC(=O)CN4CC[C@@H](O)C4)cc3)n2)cn1` (stereo partly drawn) [Example 204, N-(4-(4-(1-(2-cyano-1-cyclopentylethyl)-1H-pyrazol-4-yl)pyrimidin-2-ylamino)phenyl)-2-((R)-3-hydroxypyrrolidin-1-yl)acetamide]: less than 0.1 µM.
As to `COc1cnc(Nc2cccc(C(=O)NC3CCOCC3)c2)nc1-c1cnn(C(CC#N)C2CC2)c1` (racemic) [Example 323, 3-({4-[1-(2-cyano-1-cyclopropylethyl)-1H-pyrazol-4-yl]-5-methoxypyrimidin-2-yl}amino)-N-(tetrahydro-2H-pyran-4-yl)benzamide], the IC50 is less than 0.1 µM.
With `COc1ccc(Nc2nccc(-c3cnn(C(CC#N)CC4CCN(C(=O)c5ccc(F)cc5F)CC4)c3)n2)cc1` (racemic) [Example 3, 4-(1-(2,4-difluorobenzoyl)piperidin-4-yl)-3-(4-(2-(4-methoxyphenylamino)pyrimidin-4-yl)-1H-pyrazol-1-yl)butanenitrile] the figure was less than 0.1 µM; with `CCS(=O)(=O)N1CCC(CC(CC#N)n2cc(-c3ccnc(Nc4ccc(N5CCOCC5)cc4)n3)cn2)CC1` (racemic) [Example 42, 4-(1-(ethylsulfonyl)piperidin-4-yl)-3-(4-(2-(4-morpholinophenylamino)pyrimidin-4-yl)-1H-pyrazol-1-yl)butanenitrile], less than 0.1 µM; with `N#CCC(C1CCCC1)n1cc(-c2ccnc(Nc3cccc(NC(=O)CN4CCNC(=O)C4)c3)n2)cn1` (racemic) [Example 238, N-(3-(4-(1-(2-cyano-1-cyclopentylethyl)-1H-pyrazol-4-yl)pyrimidin-2-ylamino)phenyl)-2-(3-oxopiperazin-1-yl)acetamide], less than 0.1 µM.
The same measure for `N#CCC(C1CCCC1)n1cc(-c2ccnc(Nc3ccc(NC(=O)CN4CCCC4)cc3)n2)cn1` (racemic) [Example 203, N-(4-(4-(1-(2-cyano-1-cyclopentylethyl)-1H-pyrazol-4-yl)pyrimidin-2-ylamino)phenyl)-2-(pyrrolidin-1-yl)acetamide]: less than 0.1 µM.

Source of the values: patent publication US8309718B2, “4-pyrazolyl-N-arylpyrimidin-2-amines and 4-pyrazolyl-N-heteroarylpyrimidin-2-amines as janus kinase inhibitors” (Incyte Corporation, priority 2007, dated 2012).
